Measurements published in patent US10874598B2, “Compositions and methods for treating damaged hair” (AVON PRODUCTS, INC., priority 2013, dated 2020).

Assay: Tensile load required to break hair fibers (break load)
Method: A commercial rinse-off conditioner formulation was used as a control vehicle for the study. An active formulation was prepared by adding 1% (w/w) of TDPA to the control vehicle. Three samples of treated hair were prepared: untreated, treatment with the control vehicle, and treatment with the control vehicle plus 1% TDPA. The treatments were applied to hair tresses that had been previously damaged by artificially color with an oxidative dye. The treatments were repeated five times. The overall condition of the hair fibers was determined by measuring the tensile load required to break the fibers and the results of 30 fibers were averaged. […] In stark contrast, the active formula, having 1% TDPA, gave a break load of about 82 gm. This correlates to an improvement in the tensile strength of about 20%. The formulas used in the testing protocol were as follows: […]

In the case of O=C(O)CCSCCC(=O)O [TDPA, 3,3′-thiodipropionic acid], the “improvement in the tensile strength” value (active formula with 1% TDPA (about 82 gm), untreated hair about 68 gm, control vehicle about 73 gm) is reported as “about 20%” and the “break load (tensile load required to break the fibers)” value (active formula: commercial rinse-off conditioner control vehicle plus 1% (w/w) TDPA, treatments repeated five times, results of 30 fibers averaged, FIG. 1) is reported as “about 82 gm”.
